# Measured values taken from the supplement of paper PMC10331698.
# ± gives the standard deviation of the averaged measurements.
# Tests used:
# Assay in all cases: level (log10 ratio to DMSO vehicle control); higher = higher biomarker level / cell amount than vehicle control
# Methotrexate = compound: CN(Cc1cnc2nc(N)nc(N)c2n1)c1ccc(C(=O)N[C@@H](CCC(=O)O)C(=O)O)cc1 [Methotrexate]; settings: in DMSO
# Protocol: (§1)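 BioMAP Diversity Plus panel of 12 human primary cell co-culture systems (3C, 4H, LPS, SAg, BT, BF4T, BE3C, CASM3C, HDF3CGF, KF3CT, MyoF, Mphg). Compounds were added 1 h before stimulation and left for 24 h (MyoF 48 h; BT 72 h for soluble read-outs or 6 d for IgG). Biomarkers were read by ELISA, cytotoxicity by SRB, PBMC viability and proliferation by Alamar Blue. Each well value was divided by the mean of 8 DMSO control wells on the same plate and log10 transformed; duplicate blinded samples were tested at 4 concentrations.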
# [1] = compound: O=S(=O)(OCC(F)(F)F)C(F)(F)C(F)(F)C(F)(F)C(F)(F)F [2,2,2-Trifluoroethyl perfluorobutanesulfonate]; settings: in DMSO
# Protocol: as §1
# Tetrafluorosuccinic acid = compound: O=C(O)C(F)(F)C(F)(F)C(=O)O [Tetrafluorosuccinic acid]; settings: in DMSO
# Protocol: as §1
# [2] = compound: O=C(CC(=O)C(F)(F)C(F)(F)C(F)(F)F)c1cccs1 [(Perfluorobutyryl)-2-thenoylmethane]; settings: in DMSO
# Protocol: as §1
# [3] = compound: OCCC(F)(F)C(F)(F)C(F)(F)C(F)(F)C(F)(F)C(F)(F)C(F)(F)C(F)(F)F [8:2 Fluorotelomer alcohol]; settings: 6700 nM; in DMSO
# Protocol: as §1
# [4] = compound: C=CC(=O)OCC(F)(F)C(F)(F)C(F)(F)C(F)(F)COC(=O)C=C [1H,1H,6H,6H-Perfluorohexane-1,6-diol diacrylate]; settings: 6700 nM; in DMSO
# Protocol: as §1
# Perfluoropinacol = compound: OC(C(F)(F)F)(C(F)(F)F)C(O)(C(F)(F)F)C(F)(F)F [Perfluoropinacol]; settings: in DMSO
# Protocol: as §1
# [5] = compound: FC(F)(I)C(F)(F)C(F)(F)C(F)(F)C(F)(F)C(F)(F)I [1,6-Diiodoperfluorohexane]; settings: 6700 nM; in DMSO
# Protocol: as §1
# [6] = compound: FC(F)(F)COC(OCC(F)(F)F)OCC(F)(F)F [tris(Trifluoroethoxy)methane]; settings: in DMSO
# Protocol: as §1
Test System,level (log10) (Methotrexate; 1500 nM),level (log10) (Methotrexate; 4400 nM),level (log10) (Methotrexate; 13000 nM),level (log10) (Methotrexate; 40000 nM),level (log10) ([1]; 6700 nM),level (log10) ([1]; 20000 nM),level (log10) ([1]; 60000 nM),level (log10) (Tetrafluorosuccinic acid; 6700 nM),level (log10) (Tetrafluorosuccinic acid; 20000 nM),level (log10) (Tetrafluorosuccinic acid; 60000 nM),level (log10) ([2]; 6700 nM),level (log10) ([2]; 20000 nM),level (log10) [3],level (log10) [4],level (log10) (Perfluoropinacol; 6700 nM),level (log10) (Perfluoropinacol; 20000 nM),level (log10) [5],level (log10) ([6]; 6700 nM),level (log10) ([6]; 20000 nM),level (log10) ([6]; 60000 nM)
BE3C:CD87/uPAR,0.0225 ± 0.005,-0.0145 ± 0.011,0 ± 0.016,0.0145 ± 0.015,-0.048 ± 0.0099,-0.024 ± 0.018,-0.0355 ± 0.026,0.0095 ± 0.021,-0.0045 ± 0.00071,0.012 ± 0.014,0.013 ± 0.0028,-0.007 ± 0.0014,-0.023 ± 0.041,0.014 ± 0.023,-0.0675 ± 0.019,-0.231 ± 0.016,0.059,-0.01 ± 0.0028,0.0475 ± 0.047,-0.0075 ± 0.023
BE3C:CXCL8/IL-8,0.0795 ± 0.069,0.035 ± 0.089,0.053 ± 0.057,0.048 ± 0.11,0.001 ± 0.0071,-0.0035 ± 0.026,0.0225 ± 0.021,0.0325 ± 0.052,0.0315 ± 0.071,0.0525 ± 0.0064,-0.0905 ± 0.013,-0.01 ± 0.023,-0.054 ± 0.0042,-0.095 ± 0.013,-0.049 ± 0.0014,-0.203 ± 0.021,0.011,0.018 ± 0.051,0.0155 ± 0.04,0.0505 ± 0.013
BE3C:CXCL9/MIG,0.006 ± 0.0071,0.013 ± 0.0028,0.013 ± 0.014,0.01 ± 0.0057,0.031 ± 0.0085,0.0065 ± 0.0078,0.0135 ± 0.0021,0.005 ± 0.0071,0 ± 0.0085,0.0075 ± 0.0092,-0.0095 ± 0.016,-0.142 ± 0.0028,-0.0095 ± 0.00071,-0.0075 ± 0.011,-0.0045 ± 0.015,0.002 ± 0.0071,0.01,0.001 ± 0.0071,0.0025 ± 0.023,-0.0045 ± 0.018
BE3C:CXCL10/IP-10,0.003 ± 0.051,0.0105 ± 0.032,0.0195 ± 0.019,0.011 ± 0.038,0.021 ± 0.0057,0.003 ± 0.0028,0.011 ± 0.011,-0.007 ± 0.0028,-0.009 ± 0.0057,-0.0125 ± 0.0035,-0.0615 ± 0.00071,-0.578 ± 0.018,-0.0515 ± 0.057,-0.0095 ± 0.0064,-0.0315 ± 0.0035,-0.118 ± 0.0071,0.008,-0.001 ± 0.0085,-0.0035 ± 0.018,0.0095 ± 0.0021
BE3C:CXCL11/I-TAC,0.017 ± 0.027,0.0135 ± 0.029,0.0225 ± 0.015,0.016 ± 0.031,0.017 ± 0.0057,-0.003 ± 0.0085,0.006 ± 0.0085,0.002 ± 0.0042,-0.0025 ± 0.0092,-0.002 ± 0.0014,-0.01,-0.28 ± 0.011,-0.012 ± 0.0014,-0.0115 ± 0.0021,0.0435 ± 0.00071,0.0115 ± 0.021,0.024,0.0065 ± 0.012,-0.002 ± 0.0042,0.0015 ± 0.0021
BE3C:EGFR,0.023 ± 0.028,0.002 ± 0.013,0.0085 ± 0.0092,0.0155 ± 0.037,0.006 ± 0.0028,0.007,0.0025 ± 0.00071,-0.008 ± 0.0042,-0.0055 ± 0.019,0.003 ± 0.0042,-0.0725 ± 0.029,-0.094 ± 0.041,-0.019 ± 0.0014,-0.034 ± 0.0099,0.0065 ± 0.00071,-0.027 ± 0.0085,-0.015,0.022 ± 0.041,0.0095 ± 0.033,0.005 ± 0.021
BE3C:HLA-DR,-0.0105 ± 0.00071,-0.0235 ± 0.0064,0.013 ± 0.011,-0.0145 ± 0.022,-0.001 ± 0.011,0.005 ± 0.0085,-0.011 ± 0.0014,-0.027 ± 0.0028,-0.0045 ± 0.0035,0.004 ± 0.0014,-0.044 ± 0.0028,-0.41 ± 0.032,-0.02,-0.048 ± 0.0071,-0.0145 ± 0.0064,-0.0565 ± 0.019,-0.01,-0.0015 ± 0.011,0.0155 ± 0.0064,0.006 ± 0.021
BE3C:IL-1alpha,-0.012 ± 0.0085,-0.0255 ± 0.023,-0.0095 ± 0.054,0.007 ± 0.033,0.0045 ± 0.011,0.0025 ± 0.0078,0.015 ± 0.013,0.019 ± 0.013,0.009 ± 0.02,0.0385 ± 0.012,-0.0165 ± 0.00071,-0.19 ± 0.005,-0.014 ± 0.0014,-0.0735 ± 0.03,-0.041 ± 0.021,-0.093 ± 0.0071,-0.004,0.0075 ± 0.021,-0.006 ± 0.021,0.021 ± 0.0057
BF4T:CCL2/MCP-1,0.0115 ± 0.022,0.0135 ± 0.0035,-0.022 ± 0.0028,0.0055 ± 0.029,0.024 ± 0.0028,0.0125 ± 0.005,0.017 ± 0.021,-0.007 ± 0.0028,-0.0135 ± 0.0064,-0.0215 ± 0.016,-0.097 ± 0.018,-0.306 ± 0.093,-0.0135 ± 0.0035,-0.055 ± 0.02,0.0435 ± 0.032,-0.0175 ± 0.015,-0.172,0.0025 ± 0.023,-0.0115 ± 0.032,0.019 ± 0.061
BF4T:CCL26/Eotaxin-3,0.057 ± 0.0014,-0.005 ± 0.14,0.0465 ± 0.029,0.031 ± 0.072,-0.0015 ± 0.016,-0.018 ± 0.0071,-0.014 ± 0.037,0.018 ± 0.04,-0.02 ± 0.04,-0.0075 ± 0.015,-0.181 ± 0.0035,-0.464 ± 0.018,-0.106 ± 0.012,-0.055 ± 0.025,-0.108 ± 0.0042,-0.217 ± 0.0057,-0.071,0.0055 ± 0.025,-0.011 ± 0.0014,0.012 ± 0.0057
BF4T:CD54/ICAM-1,0.001 ± 0.0099,-0.0135 ± 0.019,0.009 ± 0.0085,0.0095 ± 0.011,-0.0115 ± 0.016,-0.014 ± 0.037,-0.0295 ± 0.016,-0.0145 ± 0.013,-0.018 ± 0.0042,-0.0295 ± 0.0021,0.011 ± 0.017,-0.0745 ± 0.00071,-0.0365 ± 0.015,-0.0575 ± 0.0021,-0.0015 ± 0.011,-0.018 ± 0.0028,-0.073,-0.007 ± 0.017,0 ± 0.038,-0.017 ± 0.017
BF4T:CD90,0.001 ± 0.0014,-0.0145 ± 0.0035,-0.006 ± 0.016,0.0235 ± 0.012,0.004 ± 0.0099,-0.007 ± 0.023,-0.009 ± 0.011,-0.0115 ± 0.012,-0.015 ± 0.024,-0.017 ± 0.0042,-0.014 ± 0.0085,-0.062 ± 0.027,-0.022 ± 0.0099,-0.0265 ± 0.0021,-0.015 ± 0.017,-0.024 ± 0.0071,-0.059,-0.008 ± 0.0042,-0.004 ± 0.0028,-0.0035 ± 0.0021
BF4T:CD106/VCAM-1,0.014 ± 0.024,0.0165 ± 0.029,0.0245 ± 0.016,0.0245 ± 0.011,-0.0135 ± 0.07,-0.0035 ± 0.074,-0.049 ± 0.027,0.0205 ± 0.0092,-0.0155 ± 0.029,-0.033 ± 0.021,0.0215 ± 0.052,-0.236 ± 0.063,-0.0905 ± 0.023,-0.132 ± 0.016,-0.0455 ± 0.0021,-0.096,-0.041,-0.014 ± 0.0042,-0.005 ± 0.023,0.003 ± 0.023
BF4T:CXCL8/IL-8,0.035 ± 0.027,0.027 ± 0.071,0.041 ± 0.057,0.0365 ± 0.12,0.0295 ± 0.0064,0.017,0.0385 ± 0.044,0.0235 ± 0.0064,0.016 ± 0.038,0.029 ± 0.023,0.0325 ± 0.028,0.114 ± 0.0092,-0.0095 ± 0.0092,-0.0265 ± 0.013,0.081 ± 0.024,0.0865 ± 0.032,-0.014,0 ± 0.037,0.007 ± 0.021,0.005 ± 0.024
